Test results: patent publication US20130065818A1, “Arylamide Compounds And Compositions And Uses Thereof” (POLYMEDIX, priority 2006, published 2013)
In brackets after ≈: the same amount, converted by molar mass. Like-named read-outs stand apart in the source and are kept apart here.

Legend:
S. aureus ATCC 27660 = assay: MIC, control bacteria (Example 8); format: cell-based
Experimental: • Mueller-Hinton Broth in tubes was inoculated with 25 ocular isolates of Staphylococcus aureus fluoroquinolone-susceptible, Staphylococcus aureus fluoroquinolone-resistant, Staphylococcus epidermidis (Coagulase-negative Staphylococcus) fluoroquinolone-susceptible, Staphylococcus epidermidis (Coagulase-negative Staphylococcus) fluoroquinolone-resistant, Pseudomonas aeruginosa and Serratia marcescens, plus two controls (Staphylococcus aureus and E. coli) and incubated at 37° C. overnight on a shaker set at 250 rpm.
Control Bacteria—The two control bacteria (Staphylococcus aureus and E. coli) were treated as above.
Control Bacteria Set #1—this set of control bacteria were treated as the Streptococcus pneumoniae, Streptococcus viridans and Moraxella species (including Moraxella catarrhalis) test isolates above; the control bacteria underwent the same conditions as the test Streptococcus pneumoniae, Streptococcus viridans and Moraxella species (including Moraxella catarrhalis) isolates. This set of control bacteria was to determine whether there was a difference in the MICs by performing the MIC determinations in 2% lysed horse red blood cells with the standard method performed in Mueller-Hinton broth.
Control Bacteria Set #2—the control bacteria were added to 5 ml of Mueller-Hinton Broth without the 2% lysed horse red blood cells to achieve the standard inoculum concentration. This set of control bacteria is the normal control to determine whether the compounds are at the target MICs.
Control Bacteria Set #1—this set of control bacteria were treated as the Haemophilus influenzae test isolates above; the control bacteria underwent the same conditions as the test Haemophilus influenzae isolates. This set of control bacteria is to determine whether there was a difference in the MICs by performing the MIC determinations in HTM broth with the standard method performed in Mueller-Hinton broth.
Control Bacteria Set #2—the control bacteria were added to 5 ml of Mueller-Hinton Broth to achieve the standard inoculum concentration. This set of control bacteria is the normal control to determine whether the compounds are at the target MICs.
Ninety μl of the bacterial suspensions was dispensed in each well from column 1 to column 12. Each bacterial isolate was placed in one row of a 96 well polypropylene plate containing the test agents. The plates were placed on shaker at 15 minutes at room temperature, and then incubated at 37° C. overnight. MICs were determined visually as the lowest concentration of drug that inhibits visible bacterial growth.

Serratia marcescens = assay: MIC, 25 ocular isolates, broth microdilution (Example 8); format: cell-based
[1] = Control Bacteria S. aureus ATCC 27660

N=C(N)NCCCCC(=O)Nc1cc(C(F)(F)F)cc(NC(=O)c2cc(C(=O)Nc3cc(C(F)(F)F)cc(NC(=O)CCCCNC(=N)N)c3O[C@@H]3CCNC3)ncn2)c1O[C@@H]1CCNC1 [Oligomer 4]
Decrease of activity by addition of 2% lysed horse red blood cells to Mueller-Hinton broth (S. aureus ATCC 27660; [1]): approximately 4 fold | Decrease of activity by use of HTM broth (S. aureus ATCC 27660; [1]): approximately 8 fold | MIC (S. aureus ATCC 27660; Control Bacteria Set #1, run with Haemophilus influenzae MIC test, read-out: MIC): 4 µg/mL (≈ 4.27 µM) | MIC (S. aureus ATCC 27660; S. aureus ATCC 27660): 0.098 µg/mL (≈ 0.105 µM) | MIC (S. aureus ATCC 27660; S. aureus ATCC 27660, Control for MIC Test SA-FQR, first batch): 1 µg/mL (≈ 1.07 µM) | MIC (S. aureus ATCC 27660; S. aureus ATCC 27660, Control for MIC Test SA-FQS, first batch): 2 µg/mL (≈ 2.13 µM) | MIC (S. aureus ATCC 27660; S. aureus ATCC 27660, new batches, Control Only 1): 0.25 µg/mL (≈ 0.267 µM) | MIC (S. aureus ATCC 27660; S. aureus ATCC 27660, new batches, Control Only 2): 0.25 µg/mL (≈ 0.267 µM) | MIC (S. aureus ATCC 27660; S. aureus ATCC 27660, new batches, Control Only 3): 0.25 µg/mL (≈ 0.267 µM) | MIC (S. aureus ATCC 27660; S. aureus ATCC 27660, new batches, Control Only 4): 0.5 µg/mL (≈ 0.534 µM) | MIC (S. aureus ATCC 27660; Staphylococcus aureus, ATCC27660, Control Bacteria Set #1, run with Moraxella MIC test, read-out: MIC): 1 µg/mL (≈ 1.07 µM) | MIC (S. aureus ATCC 27660; Staphylococcus aureus, ATCC27660, Control Only 1, read-out: MIC of control bacteria on day of MIC testing): 0.25 µg/mL | MIC (S. aureus ATCC 27660; Staphylococcus aureus, ATCC27660, Control Only 2, read-out: MIC of control bacteria on day of MIC testing): 0.25 µg/mL | MIC (S. aureus ATCC 27660; Staphylococcus aureus, ATCC27660, Control Only 3, read-out: MIC of control bacteria on day of MIC testing): 0.25 µg/mL | MIC (S. aureus ATCC 27660; Staphylococcus aureus, ATCC27660, Control Only 4, read-out: MIC of control bacteria on day of MIC testing): 0.5 µg/mL | MIC (S. aureus ATCC 27660; Staphylococcus aureus, ATCC27660, S. aureus ATCC 27660, Control Bacteria Set #1 (same conditions as test isolates), run with Streptococcus pneumoniae MIC test, read-out: MIC): 1 µg/mL (≈ 1.07 µM) | MIC (S. aureus ATCC 27660; Staphylococcus aureus, ATCC27660, S. aureus ATCC 27660, Control Bacteria Set #1 (same conditions as test isolates), run with Streptococcus viridans group MIC test, read-out: MIC): 2 µg/mL (≈ 2.13 µM) | MIC (S. aureus ATCC 27660; Staphylococcus aureus, ATCC27660, S. aureus ATCC 27660, Control Bacteria Set #2 (Mueller-Hinton Broth), run with Streptococcus pneumoniae MIC test, read-out: MIC): 0.25 µg/mL (≈ 0.267 µM) | MIC (S. aureus ATCC 27660; Staphylococcus aureus, ATCC27660, S. aureus ATCC 27660, Control Bacteria Set #2 (Mueller-Hinton Broth), run with Streptococcus viridans group MIC test, read-out: MIC): 1 µg/mL (≈ 1.07 µM) | MIC (S. aureus ATCC 27660; Staphylococcus aureus, ATCC27660, S. aureus ATCC 27660, control bacteria run with Pseudomonas aeruginosa MIC test, read-out: MIC): 0.5 µg/mL (≈ 0.534 µM) | MIC (S. aureus ATCC 27660; Staphylococcus aureus, ATCC27660, S. aureus ATCC 27660, control bacteria run with S. aureus fluoroquinolone-resistant MIC test, read-out: MIC): 1 µg/mL (≈ 1.07 µM) | MIC (S. aureus ATCC 27660; Staphylococcus aureus, ATCC27660, S. aureus ATCC 27660, control bacteria run with S. aureus fluoroquinolone-susceptible MIC test, read-out: MIC): 2 µg/mL (≈ 2.13 µM) | MIC (S. aureus ATCC 27660; Staphylococcus aureus, ATCC27660, S. aureus ATCC 27660, control bacteria run with S. epidermidis fluoroquinolone-resistant MIC test, read-out: MIC): 0.25 µg/mL (≈ 0.267 µM) | MIC (S. aureus ATCC 27660; Staphylococcus aureus, ATCC27660, S. aureus ATCC 27660, control bacteria run with S. epidermidis fluoroquinolone-susceptible MIC test, read-out: MIC): 0.25 µg/mL (≈ 0.267 µM) | MIC (S. aureus ATCC 27660; Staphylococcus aureus, ATCC27660, S. aureus ATCC 27660, control bacteria run with Serratia marcescens MIC test, read-out: MIC): 0.25 µg/mL (≈ 0.267 µM) | MIC (S. aureus ATCC 27660; Staphylococcus aureus, ATCC27660, S. aureus ATCC 27660, MIC previously obtained (target MIC), printed in parentheses, read-out: MIC for Control Bacteria within the parentheses): 0.098 µg/mL (≈ 0.105 µM) | MIC (S. aureus ATCC 27660; Staphylococcus aureus, ATCC27660, S. aureus ATCC27660, read-out: MIC): 0.098 µg/mL (≈ 0.105 µM) | MIC (S. aureus ATCC 27660; Staphylococcus aureus, ATCC27660, control for MIC test HI (Control Bacteria Set #2), read-out: MIC of control bacteria on day of MIC testing): 0.5 µg/mL | MIC (S. aureus ATCC 27660; Staphylococcus aureus, ATCC27660, control for MIC test MS (Control Bacteria Set #2), read-out: MIC of control bacteria on day of MIC testing): 0.5 µg/mL | MIC (S. aureus ATCC 27660; Staphylococcus aureus, ATCC27660, control for MIC test PA, read-out: MIC of control bacteria on day of MIC testing): 0.5 µg/mL | MIC (S. aureus ATCC 27660; Staphylococcus aureus, ATCC27660, control for MIC test SA-FQR, read-out: MIC of control bacteria on day of MIC testing): 1 µg/mL | MIC (S. aureus ATCC 27660; Staphylococcus aureus, ATCC27660, control for MIC test SA-FQS, read-out: MIC of control bacteria on day of MIC testing): 2 µg/mL | MIC (S. aureus ATCC 27660; Staphylococcus aureus, ATCC27660, control for MIC test SE-FQR, read-out: MIC of control bacteria on day of MIC testing): 0.25 µg/mL | MIC (S. aureus ATCC 27660; Staphylococcus aureus, ATCC27660, control for MIC test SE-FQS, read-out: MIC of control bacteria on day of MIC testing): 0.25 µg/mL | MIC (S. aureus ATCC 27660; Staphylococcus aureus, ATCC27660, control for MIC test SM, read-out: MIC of control bacteria on day of MIC testing): 0.25 µg/mL | MIC (S. aureus ATCC 27660; Staphylococcus aureus, ATCC27660, control for MIC test SP, read-out: MIC of control bacteria on day of MIC testing): 0.25 µg/mL | MIC (S. aureus ATCC 27660; Staphylococcus aureus, ATCC27660, control for MIC test SV, read-out: MIC of control bacteria on day of MIC testing): 1 µg/mL | MIC (S. aureus ATCC 27660; Staphylococcus aureus, ATCC27660, reference MIC printed in parentheses beside the day's control value, read-out: MIC for Control Bacteria (within the parentheses)): 0.098 µg/mL (≈ 0.105 µM) | MIC50 (Serratia marcescens; 25 isolates, Row 13, >128 was Replaced with 256): 8 µg/mL (≈ 8.54 µM) | MIC90 (Serratia marcescens; 25 isolates, Row 22, >128 was Replaced with 256): 32 µg/mL (≈ 34.2 µM) | Range of MICs (Serratia marcescens; 25 isolates, Summary of Results, >128 was Replaced with 256): 0.25 to 32 µg/mL | MIC (Serratia marcescens; Serratia marcescens, 25 ocular isolates, read-out: Median MIC): 8 µg/mL (≈ 8.54 µM) | MIC (Serratia marcescens; Serratia marcescens, isolate 1—K1681, read-out: MIC): 32 µg/mL (≈ 34.2 µM) | MIC (Serratia marcescens; Serratia marcescens, isolate 2—K1674, read-out: MIC): 32 µg/mL (≈ 34.2 µM) | MIC (Serratia marcescens; Serratia marcescens, isolate 3—K1558, read-out: MIC): 4 µg/mL (≈ 4.27 µM) | MIC (Serratia marcescens; Serratia marcescens, isolate 4—K1538, read-out: MIC): 16 µg/mL (≈ 17.1 µM) | MIC (Serratia marcescens; Serratia marcescens, isolate 5—K1503, read-out: MIC): 32 µg/mL (≈ 34.2 µM) | MIC (Serratia marcescens; Serratia marcescens, isolate 6—K1216, read-out: MIC): 4 µg/mL (≈ 4.27 µM) | MIC (Serratia marcescens; Serratia marcescens, isolate 7—K1496, read-out: MIC): 8 µg/mL (≈ 8.54 µM) | MIC (Serratia marcescens; Serratia marcescens, isolate 8—K1481, read-out: MIC): 2 µg/mL (≈ 2.13 µM) | MIC (Serratia marcescens; Serratia marcescens, isolate 9—K1470, read-out: MIC): 32 µg/mL (≈ 34.2 µM) | MIC (Serratia marcescens; Serratia marcescens, isolate 10—K1468, read-out: MIC): 2 µg/mL (≈ 2.13 µM) | MIC (Serratia marcescens; Serratia marcescens, isolate 11—K1467, read-out: MIC): 32 µg/mL (≈ 34.2 µM) | MIC (Serratia marcescens; Serratia marcescens, isolate 12—K1462, read-out: MIC): 16 µg/mL (≈ 17.1 µM) | MIC (Serratia marcescens; Serratia marcescens, isolate 13—K1461, read-out: MIC): 8 µg/mL (≈ 8.54 µM) | MIC (Serratia marcescens; Serratia marcescens, isolate 14—K1413, read-out: MIC): 16 µg/mL (≈ 17.1 µM) | MIC (Serratia marcescens; Serratia marcescens, isolate 15—K1402, read-out: MIC): 0.25 µg/mL (≈ 0.267 µM) | MIC (Serratia marcescens; Serratia marcescens, isolate 16—K1357, read-out: MIC): 1 µg/mL (≈ 1.07 µM) | MIC (Serratia marcescens; Serratia marcescens, isolate 17—K1351, read-out: MIC): 0.5 µg/mL (≈ 0.534 µM) | MIC (Serratia marcescens; Serratia marcescens, isolate 18—K1327, read-out: MIC): 8 µg/mL (≈ 8.54 µM) | MIC (Serratia marcescens; Serratia marcescens, isolate 19—K1321, read-out: MIC): 8 µg/mL (≈ 8.54 µM) | MIC (Serratia marcescens; Serratia marcescens, isolate 20—K1315, read-out: MIC): 16 µg/mL (≈ 17.1 µM) | MIC (Serratia marcescens; Serratia marcescens, isolate 21—K1306, read-out: MIC): 8 µg/mL (≈ 8.54 µM) | MIC (Serratia marcescens; Serratia marcescens, isolate 22—K1290, read-out: MIC): 8 µg/mL (≈ 8.54 µM) | MIC (Serratia marcescens; Serratia marcescens, isolate 23—K1265, read-out: MIC): 8 µg/mL (≈ 8.54 µM) | MIC (Serratia marcescens; Serratia marcescens, isolate 24—K1263, read-out: MIC): 8 µg/mL (≈ 8.54 µM) | MIC (Serratia marcescens; Serratia marcescens, isolate 25—K1239, read-out: MIC): 8 µg/mL (≈ 8.54 µM) | MIC (Serratia marcescens; Serratia marcescens, n=25 per group, read-out: Median MIC): 8 µg/mL (≈ 8.54 µM) | MIC50 (Serratia marcescens; Serratia marcescens, 25 isolates, Summary of Results, >128 was Replaced with 256, read-out: MIC50): 8 µg/mL (≈ 8.54 µM) | MIC90 (Serratia marcescens; Serratia marcescens, 25 isolates, Summary of Results, >128 was Replaced with 256, read-out: MIC90): 32 µg/mL (≈ 34.2 µM) | MIC (Serratia marcescens; Serratia marcescens, 25 isolates, Summary of Results, >128 was Replaced with 256, read-out: Median MIC): 8 µg/mL (≈ 8.54 µM) | MIC50 (Serratia marcescens; n=25 per group): 8 µg/mL (≈ 8.54 µM) | MIC90 (Serratia marcescens; n=25 per group): 32 µg/mL (≈ 34.2 µM) | Range of MICs (Serratia marcescens; n=25 per group): 0.25 to 32 µg/mL
